Starred links: 1 amine or outer side, 2 acyl side, 3 side chain; linkers in the order of their positions; H or OH if unused. Non-standard residues stand in square brackets, D forms with d. Residues, ends and D or L forms follow the SMILES beside them. azaLeu = CC(C)CN(N[*:1])C(=O)[*:2]
Experiments:
[1] = molecular target: human GHS-R1a (Homo sapiens (Human), UniProt Q92847); experiment: GHS-R1a binding assay, competition with 125I-ghrelin on membranes of LLC-PK1 cells expressing human GHS-R1a; settings: Table 4; LLCPK-1 membranes overexpressing GHS-R1a; radioiodinated (1-28) rat ghrelin as tracer; read-out: EC50 (text: IC50 values from competition curves in GHS-R1a radioreceptor assay)
[2] = test system: vascular sprouting of aortic endothelium (aortic rings); experiment: Inhibition of microvascular sprouting from Matrigel-embedded aortic explants; format: cell-based, mice; settings: preliminary data; compared with GHRP-6
Excerpt: FIG. 1 illustrates disruption of vascular sprouting of aortic endothelium by azapeptide compound DBG178. Sprouting aortic endothelium (Von Willebrand factor positive) expressing CD36 is shown in the upper row of FIG. 1a. Vascular sprouting of aortic rings from C57BL/6 and CD36 null mice in the presence of DBG 178 at 10^−7M is shown in the lower row of FIG. 1a. Histograms of microvascular sprouts areas (mean±s.e.m) from aortic explants of C57BL/6 and CD36 null mice exposed to DBG concentrations from 10^−8 to 10^−6 M p<0.01 compared with control (Ctl) is shown in FIG. 1b.
Aortas were excised from 10-week-old male C57/Bl6+/+ and CD36−/− mice of C57/Bl6 background. The fibroadipose tissue was removed and aortas were sectioned into 2-mm-long cross-sections. The +/+ and −/− rings were covered by 50 μl of Matrigel and cultured for 4 days in EGM-2 medium (Clonetics Corp.). Explants were then exposed to vehicle alone or in presence of an azapeptide prototype DBG178 at the indicated concentrations (10^−8 to 10^−6 M) from day 4 to day 6 of culture in EGM-2 medium. Pictures of each individual explant were taken at day 4 and day 6 and EC growth was measured as the surface covered at day 6 minus the surface covered at day 4 Data were subject to analysis of variance (ANOVA) followed by Dunnet's post test to test for differences among groups. Outgrowing cells were characterized by double-labelling with monoclonal vWF antibody (1:100, Dako) and polyclonal CD36 (1:100, Santa Cruz) after acetone fixation using their respective alexa coupled secondary antibodies.

[3] = molecular target: CD36 (Rattus norvegicus (Rat), UniProt Q07969); experiment: CD36 receptor covalent photolabelling binding assay, competition with [125I]Tyr-Bpa-Ala-hexarelin on rat cardiac membranes
Method: The hearts from Sprague Dawley rats (300 g-325 g) from Charles River, used as a source of cardiac membranes, were prepared as follows: the heart was washed with ice-cold saline, and fatty and connective tissue was removed. The tissue was cut into small pieces with scissors and placed in a Sorvall centrifuge tube containing 5 ml/g of fresh tissue of Buffer A (10 mM NaHCO3, 5 mM NaN3, 10 μM Pefabloc, 0.1 μM Aprotinin, 1 μM Pepstatin A, 1 μM Leupeptin, pH 7.0). The suspension was homogenized with a Polytron at low speed, 3×15 sec. The homogenate was centrifuged at 8 700×g for 20 min and the supernatant was put on ice. The pellet was resuspended and homogenized with a Glass-teflon Potter by 5 strokes. The homogenate was centrifuged at 8 700×g for 10 min and this supernatant was combined with the first supernatant. The supernatant fluid was centrifuged at 35 000×g for 20 min, yielding a second pellet fraction that was suspended thoroughly in a glass homogenizer with a Teflon pestle in 20 ml/g of fresh tissue of Buffer B (20 mM Tris-maleate, 0.6M KCl, pH 6.8). The resulting suspension was centrifuged again at 35 000×g for 60 min. The third pellet fraction was resuspended thoroughly in a glass homogenizer with a Teflon pestle in 20 ml/g of fresh tissue of Buffer C (10 mM Tris/HCl buffer pH 7.4) followed with another centrifugation at 35 000×g for 60 min. The harvested precipitate was then suspended in a small volume (1-2 ml/g of fresh tissue) of 50 mM Tris/HCl buffer pH 7.4) containing 2 mM EGTA. The resulting membrane preparation was frozen at −80° C. Protein concentration was determined with bicinchoninic acid (BCA) method, using BSA as standard.
The iodination procedure was performed in the darkness. […] The reaction was started by adding 5 ul (3 nmol) of H2O2. The incubation was carried out at 22° C. for 5 min. The addition of H2O2 was repeated twice with 5 min incubation each time. The reaction was stopped with the addition of 1.4 ml of 0.1% TFA. The iodinated peptide was purified on a reverse-phase Vydac C18 column with a 60 min linear gradient (1 ml/min) from 20% to 50% acetonitrile (90%) in 0.1% TFA (10%).
Nonspecific binding was defined as binding not displaced by 50 μM corresponding peptide. All peptide containing solutions were diluted in Buffer B. Buffer A and B were degassed under vacuum, and used in capped tubes in order to minimize lipid peroxydation. Before the incubation period, all tubes were put under a low flow of nitrogen. All material was kept on ice and the binding assay was performed in darkness. After an incubation period of 60 min at 22° C. […] After centrifugation at 12 000×g for 15 minutes, the pellets were resuspended in 150 μl of sample buffer (62 mM Tris-HCl, pH 6.8, 2% SDS, 10% glycerol, 15% 2-mercapto-ethanol, and 0.05% bromophenol blue), and boiled for 5 min prior to being subjected to electrophoresis. Proteins (200 μg/100 μl) were separated on 7.5% SDS-PAGE (45 V overnight). The gels resulting from SDS/PAGE were fixed, colored in Coomassie Brilliant Blue R-250, dried, exposed to a storage phosphor intensifying screen (Amersham Biosciences), and analysed by using a Typhoon PhosphorImager (Amersham Biosciences) and ImageQuant 5.0 software to establish competition curves. Protein bands were quantified by densitometry. The covalent binding signal of 87 kDa was analyzed by densitometry using Typhoon Phospholmager™ (Typhoon, Amersham Biosciences) and ImageQuant 5.0® software to set competition curves.
Specific binding activities were defined as the ratio of the density of the protein band to that of a non-specific band. Results are expressed as the percentage of the density of the […] to that of the total binding band.

Chain of CD36 (Q07969 whole entry): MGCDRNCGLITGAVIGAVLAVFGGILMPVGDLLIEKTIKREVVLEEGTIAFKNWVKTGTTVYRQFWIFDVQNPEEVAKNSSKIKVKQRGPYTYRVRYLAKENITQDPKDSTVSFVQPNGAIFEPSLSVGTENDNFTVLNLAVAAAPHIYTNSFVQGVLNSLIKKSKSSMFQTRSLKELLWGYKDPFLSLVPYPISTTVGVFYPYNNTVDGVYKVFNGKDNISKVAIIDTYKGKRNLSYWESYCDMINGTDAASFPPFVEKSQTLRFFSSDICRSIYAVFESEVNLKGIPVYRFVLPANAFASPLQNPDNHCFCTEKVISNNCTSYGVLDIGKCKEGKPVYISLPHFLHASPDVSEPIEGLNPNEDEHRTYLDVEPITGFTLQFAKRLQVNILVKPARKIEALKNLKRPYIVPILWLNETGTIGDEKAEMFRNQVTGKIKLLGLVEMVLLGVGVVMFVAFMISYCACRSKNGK
Chain of human GHS-R1a (Q92847 whole entry): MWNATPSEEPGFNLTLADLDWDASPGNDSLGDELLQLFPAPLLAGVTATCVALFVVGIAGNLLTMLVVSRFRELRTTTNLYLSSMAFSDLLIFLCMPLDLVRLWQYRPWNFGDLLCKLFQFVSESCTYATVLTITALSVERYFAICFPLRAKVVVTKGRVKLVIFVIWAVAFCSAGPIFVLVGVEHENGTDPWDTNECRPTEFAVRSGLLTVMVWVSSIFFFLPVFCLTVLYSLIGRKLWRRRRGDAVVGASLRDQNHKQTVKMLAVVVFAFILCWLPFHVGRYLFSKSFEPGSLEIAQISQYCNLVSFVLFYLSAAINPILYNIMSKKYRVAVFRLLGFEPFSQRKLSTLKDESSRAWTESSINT

IC50 [1]: 1.2 µM
IC50 ([3]; Table 3, rat cardiac membranes, [125I]Tyr-Bpa-Ala-hexarelin as radioligand, read-out: IC50, binding affinity of aza peptide derivatives towards CD36): 2.89 µM
Compound: CC(C)CN(NC(=O)[C@@H](Cc1c[nH]c2ccccc12)NC(=O)[C@@H](N)Cc1cnc[nH]1)C(=O)N[C@@H](Cc1c[nH]c2ccccc12)C(=O)N[C@H](Cc1ccccc1)C(=O)N[C@@H](CCCCN)C(N)=O [DBG201-A, His-D-Trp-azaLeu-Trp-D-Phe-Lys-NH2] (H-H[dW][azaLeu]W[dF]K-NH2)
ex vivo inhibition of neovascularization in aortic rings [2]: most potent inhibitory effect
binding activity/affinity at CD36 in words ([3]; compared with parent peptide GHRP-6 or hexarelin): retained significant activity similar to the parent peptide

Reference: US9708370B2, “Azapeptides as CD36 binding compounds” (VALORISATION-RECHERCHE, LIMITED PARTNERSHIP, priority 2007, dated 2017)
